Experimental data published in the supplement of paper PMC10307832.

Legend:
Assay in all cases: relative viability (nuclei count vs DMSO), 5 days (fraction); higher = more cells survive
[1] = compound: CC[C@@H](C)CNCC(=O)N1CCC2=C([C@@H]1COC3=CC=CC(=C3)C)C=CS2 [RU-SKI 43] + CC(=O)c1c(C)c2cnc(Nc3ccc(N4CCNCC4)cn3)nc2n(C2CCCC2)c1=O [Palbociclib] (partner 0.5 µM)
Procedure, shortened: (§1)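 Relative viability is defined as nuclei in treated wells over nuclei in vehicle wells. Duplicate plates were run and medians reported. Lung cancer cell lines in 1536-well plates were dosed by pin tool one day after seeding, with one drug or with a fixed anchor-drug dose plus five library-drug doses (not always all listed) in √10 steps, and nuclei were counted after 5 days.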

[2] = compound: CC[C@@H](C)CNCC(=O)N1CCC2=C([C@@H]1COC3=CC=CC(=C3)C)C=CS2 [RU-SKI 43] + CS(=O)(=O)N1CCN(Cc2cc3nc(-c4cccc5[nH]ncc45)nc(N4CCOCC4)c3s2)CC1 [Pictilisib] (partner 1 µM)
Procedure, shortened: as §1

[3] = compound: CCc1c2c(nc3ccc(OC(=O)N4CCC(N5CCCCC5)CC4)cc13)-c1cc3c(c(=O)n1C2)COC(=O)[C@]3(O)CC [Irinotecan] + CS(=O)(=O)CCNCc1ccc(-c2ccc3ncnc(Nc4ccc(OCc5cccc(F)c5)c(Cl)c4)c3c2)o1 [Lapatinib] (partner 2 µM)
Procedure, shortened: as §1

[4] = compound: CCc1c2c(nc3ccc(OC(=O)N4CCC(N5CCCCC5)CC4)cc13)-c1cc3c(c(=O)n1C2)COC(=O)[C@]3(O)CC [Irinotecan] + O=C(c1cc(Cc2n[nH]c(=O)c3ccccc23)ccc1F)N1CCN(C(=O)C2CC2)CC1 [Olaparib] (partner 8 µM)
Procedure, shortened: as §1

Cell Line | relative viability ([1]; first compound 0.1 µM) | relative viability ([1]; first compound 0.3162 µM) | relative viability ([1]; first compound 1 µM) | relative viability ([1]; first compound 3.162 µM) | relative viability ([1]; first compound 10 µM) | relative viability ([2]; first compound 0.1 µM) | relative viability ([2]; first compound 0.3162 µM) | relative viability ([2]; first compound 1 µM) | relative viability ([2]; first compound 3.162 µM) | relative viability ([2]; first compound 10 µM) | relative viability ([3]; first compound 2 µM) | relative viability ([3]; first compound 6.325 µM) | relative viability ([3]; first compound 20 µM) | relative viability ([4]; first compound 2 µM) | relative viability ([4]; first compound 6.325 µM) | relative viability ([4]; first compound 20 µM) | relative viability ([3]; first compound 0.6325 µM) | relative viability ([4]; first compound 0.6325 µM)
NCI-H2405 | 0.504 | 0.603 | 0.551 | 0.576 | 0.503 | 0.393 | 0.34 | 0.436 | 0.472 | 0.333 | 1.05 | 0.333 | 0.101 | 0.495 | 0.256 | 0.0989 |  | 
SK-MES-1 | 0.292 | 0.304 | 0.34 | 0.344 | 0.26 | 0.34 | 0.332 | 0.366 | 0.444 | 0.336 | 0.414 | 0.25 | 0.32 | 0.293 | 0.325 | 0.255 | 0.544 | 0.364
LC-2-ad | 0.509 | 0.579 | 0.532 | 0.514 | 0.445 | 0.404 | 0.601 | 0.562 | 0.438 | 0.358 | 0.291 | 0.172 | 0.132 | 0.337 | 0.282 | 0.24 | 0.416 | 0.389
NCI-H1944 | 0.34 | 0.334 | 0.328 | 0.316 | 0.303 | 0.336 | 0.317 | 0.372 | 0.353 | 0.351 | 0.369 | 0.178 | 0.187 | 0.221 | 0.198 | 0.182 | 0.563 | 0.287
NCI-H322M | 0.459 | 0.483 | 0.44 | 0.524 | 0.457 | 0.586 | 0.469 | 0.559 | 0.51 | 0.482 | 0.654 | 0.328 | 0.363 | 0.642 | 0.538 | 0.235 | 0.585 | 0.135
HCC-44 | 0.942 | 0.987 | 0.97 | 1.03 | 0.953 | 0.668 | 0.504 | 0.77 | 0.675 | 0.566 | 0.73 | 0.273 | 0.382 | 0.423 | 0.378 | 0.425 | 0.96 | 0.754
HCC-827 | 0.474 | 0.414 | 0.56 | 0.498 | 0.427 | 0.994 | 0.97 | 1.19 | 1.05 | 0.94 | 0.222 | 0.133 | 0.16 | 0.236 | 0.212 | 0.165 | 0.178 | 0.379
SW 1573 | 0.37 | 0.453 | 0.397 | 0.375 | 0.283 | 0.519 | 0.544 | 0.581 | 0.648 | 0.455 | 1.11 | 0.326 | 0.195 | 0.239 | 0.157 | 0.121 | 0.965 | 0.267
NCI-H23 | 0.464 | 0.515 | 0.548 | 0.568 | 0.47 | 0.441 | 0.497 | 0.536 | 0.492 | 0.468 | 0.466 | 0.277 | 0.271 | 0.254 | 0.207 | 0.2 | 0.653 | 0.245
EMC-BAC-2 | 0.523 | 0.477 | 0.552 | 0.505 | 0.518 | 0.516 | 0.518 | 0.561 | 0.565 | 0.511 | 0.578 | 0.27 | 0.246 | 0.292 | 0.274 | 0.158 | 0.774 | 0.276
EPLC-272H | 0.315 | 0.254 | 0.323 | 0.286 | 0.307 | 0.316 | 0.315 | 0.404 |  | 0.291 | 0.758 | 0.211 | 0.267 | 0.547 | 0.307 | 0.218 | 0.509 | 0.508
EKVX | 0.332 | 0.319 | 0.336 | 0.379 | 0.353 | 0.395 | 0.422 | 0.392 | 0.482 | 0.386 | 0.256 | 0.16 | 0.17 | 0.539 | 0.275 | 0.224 | 0.222 | 
HCC-15 | 0.706 | 0.883 | 0.76 | 0.753 | 0.665 | 0.886 | 0.887 | 0.872 | 0.721 | 0.679 | 0.336 | 0.17 | 0.155 | 0.279 | 0.202 | 0.146 | 0.463 | 0.213
LXF-289 | 0.605 | 0.666 | 0.615 | 0.61 | 0.607 | 0.828 | 0.809 | 0.832 | 0.794 | 0.744 | 0.883 | 0.315 | 0.236 | 0.215 | 0.162 | 0.158 | 0.881 | 0.211
LK-2 | 0.685 | 0.912 | 0.949 | 0.673 | 0.674 | 0.596 | 0.809 | 0.686 |  | 0.532 | 1.33 | 0.411 | 0.32 | 0.426 | 0.201 | 0.235 | 0.852 | 0.481
NCI-H2126 | 0.355 | 0.37 | 0.38 | 0.355 | 0.353 | 0.491 | 0.407 | 0.549 | 0.492 | 0.507 | 0.632 | 0.304 | 0.357 | 0.387 | 0.303 | 0.27 |  | 0.388
NCI-H3122 | 0.193 | 0.166 | 0.185 | 0.182 | 0.166 | 0.644 | 0.543 | 0.641 | 0.559 | 0.578 | 0.529 | 0.24 | 0.274 | 0.201 | 0.16 | 0.14 | 0.994 | 0.217
NCI-H727 |  | 0.559 | 0.682 | 0.671 | 0.622 | 0.31 | 0.305 | 0.438 | 0.497 | 0.377 | 0.503 | 0.445 | 0.369 | 0.454 | 0.66 | 0.656 | 0.339 | 0.723
